Experimental data: doi:10.1101/2025.02.11.637513v1 (bioRxiv, 2025)

How the values were obtained:
Test in all cases: tetrapeptide-ACC substrate cleavage kinetics
Assay type in all cases: biochemical
human caspase-4 = target: T1, human caspase-4 (Homo sapiens, UniProt P49662); details: Ac-P4-P3-P2-Asp-ACC substrate, 0.05-500 μM, 35-200 nM enzyme, 37°C, triplicate
T1 sequence (P49662 81-270 limits assumed): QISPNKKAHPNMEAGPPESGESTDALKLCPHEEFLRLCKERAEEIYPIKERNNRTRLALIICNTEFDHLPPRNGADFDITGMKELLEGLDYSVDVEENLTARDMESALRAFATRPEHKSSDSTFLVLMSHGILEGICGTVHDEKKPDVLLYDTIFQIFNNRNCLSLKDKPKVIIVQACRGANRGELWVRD
T1 sequence (P49662 290-377 limits assumed): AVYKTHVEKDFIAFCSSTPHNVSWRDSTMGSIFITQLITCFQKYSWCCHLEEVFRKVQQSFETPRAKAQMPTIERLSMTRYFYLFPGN

human caspase-1 = target: T2, human caspase-1 (Homo sapiens, UniProt P29466); details: Ac-P4-P3-P2-Asp-ACC substrate, 0.05-500 μM, 2-15 nM enzyme, 37°C, triplicate
T2 sequence (P29466 120-297 limits assumed): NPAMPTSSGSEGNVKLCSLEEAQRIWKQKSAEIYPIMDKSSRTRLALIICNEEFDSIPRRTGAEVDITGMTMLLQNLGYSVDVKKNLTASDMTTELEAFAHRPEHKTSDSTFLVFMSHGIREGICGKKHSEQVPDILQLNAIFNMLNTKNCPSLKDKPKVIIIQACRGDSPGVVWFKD
T2 sequence (P29466 317-404 limits assumed): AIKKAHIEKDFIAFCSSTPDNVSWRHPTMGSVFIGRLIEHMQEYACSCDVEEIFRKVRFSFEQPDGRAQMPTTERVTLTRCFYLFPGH

human caspase-5 = target: T3, human caspase-5 (Homo sapiens, UniProt P51878); details: Ac-P4-P3-P2-Asp-ACC substrate, 0.05-500 μM, 20-250 nM enzyme, 37°C, triplicate
T3 sequence (P51878 137-327 limits assumed): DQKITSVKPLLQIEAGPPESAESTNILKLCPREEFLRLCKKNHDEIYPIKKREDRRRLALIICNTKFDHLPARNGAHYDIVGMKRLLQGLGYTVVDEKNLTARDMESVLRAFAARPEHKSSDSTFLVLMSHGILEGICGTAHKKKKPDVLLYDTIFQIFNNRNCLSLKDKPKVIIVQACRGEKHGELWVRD
T3 sequence (P51878 347-434 limits assumed): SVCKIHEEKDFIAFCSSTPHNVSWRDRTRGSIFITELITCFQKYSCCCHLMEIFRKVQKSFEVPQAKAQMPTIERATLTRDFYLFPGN

human caspase-8 = human caspase-8 (Homo sapiens, UniProt Q14790); details: Ac-P4-P3-P2-Asp-ACC substrate, 0.05-500 μM, 6-42 nM enzyme, 37°C, triplicate
human caspase-7 = target: T4, human caspase-7 (Homo sapiens, UniProt P55210); details: Ac-P4-P3-P2-Asp-ACC substrate, 0.05-500 μM, 40-400 nM enzyme, 37°C, triplicate
T4 sequence (P55210 24-198 limits assumed): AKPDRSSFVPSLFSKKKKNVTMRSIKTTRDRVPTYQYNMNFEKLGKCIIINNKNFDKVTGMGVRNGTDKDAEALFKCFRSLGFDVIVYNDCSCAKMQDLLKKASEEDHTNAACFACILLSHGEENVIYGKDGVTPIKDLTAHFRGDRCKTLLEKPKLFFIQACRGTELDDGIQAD
T4 sequence (P55210 207-303 limits assumed): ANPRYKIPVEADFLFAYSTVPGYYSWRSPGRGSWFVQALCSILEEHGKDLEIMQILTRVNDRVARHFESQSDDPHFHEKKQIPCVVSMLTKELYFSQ

human caspase-9 = target: T5, human caspase-9 (Homo sapiens, UniProt P55211); details: Ac-P4-P3-P2-Asp-ACC substrate, 0.05-500 μM, 20-150 nM enzyme, 37°C, triplicate
T5 sequence (P55211 1-315 limits assumed): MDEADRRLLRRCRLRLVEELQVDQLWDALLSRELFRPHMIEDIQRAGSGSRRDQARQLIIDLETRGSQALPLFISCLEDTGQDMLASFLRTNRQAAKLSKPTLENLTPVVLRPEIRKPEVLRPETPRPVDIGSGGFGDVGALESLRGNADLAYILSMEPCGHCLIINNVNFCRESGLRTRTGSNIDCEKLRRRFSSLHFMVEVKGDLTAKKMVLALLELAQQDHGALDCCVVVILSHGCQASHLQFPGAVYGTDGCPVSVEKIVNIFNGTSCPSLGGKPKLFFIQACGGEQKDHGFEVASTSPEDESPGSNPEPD
T5 sequence (P55211 331-416 limits assumed): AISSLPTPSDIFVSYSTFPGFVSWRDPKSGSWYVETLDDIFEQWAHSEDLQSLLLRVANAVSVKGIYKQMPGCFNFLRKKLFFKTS

human caspase-3 = target: T6, human caspase-3 (Homo sapiens, UniProt P42574); details: Ac-P4-P3-P2-Asp-ACC substrate, 0.05-500 μM, 3-35 nM enzyme, 37°C, triplicate
T6 sequence (P42574 29-175 limits assumed): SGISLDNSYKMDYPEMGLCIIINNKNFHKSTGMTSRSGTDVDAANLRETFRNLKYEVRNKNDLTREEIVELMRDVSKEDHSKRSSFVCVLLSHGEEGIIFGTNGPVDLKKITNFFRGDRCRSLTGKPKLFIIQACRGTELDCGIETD
T6 sequence (P42574 176-277 limits assumed): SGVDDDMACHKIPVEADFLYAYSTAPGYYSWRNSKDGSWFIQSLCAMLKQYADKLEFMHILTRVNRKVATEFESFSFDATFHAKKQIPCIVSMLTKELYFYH

Chain of human caspase-8 (Q14790 217-374 limits assumed): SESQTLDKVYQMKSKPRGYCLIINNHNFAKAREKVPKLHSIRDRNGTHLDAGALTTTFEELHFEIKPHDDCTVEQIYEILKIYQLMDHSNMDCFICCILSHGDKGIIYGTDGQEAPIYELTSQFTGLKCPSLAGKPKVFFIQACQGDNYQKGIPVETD
Chain of human caspase-8 (Q14790 385-479 limits assumed): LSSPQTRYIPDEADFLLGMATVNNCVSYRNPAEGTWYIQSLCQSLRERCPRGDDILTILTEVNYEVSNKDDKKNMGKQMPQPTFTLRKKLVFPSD

| Substance | kcat/KM caspase-4 (human caspase-4) | kcat/KM caspase-1 (human caspase-1) | kcat/KM caspase-5 (human caspase-5) | kcat/KM caspase-8 (human caspase-8) | kcat/KM caspase-7 (human caspase-7) | kcat/KM caspase-9 (human caspase-9) | kcat/KM caspase-3 (human caspase-3) |
| --- | --- | --- | --- | --- | --- | --- | --- |
| Asp-Glu-Val-Asp | 260 M⁻¹ s⁻¹ | 280 M⁻¹ s⁻¹ | 180 M⁻¹ s⁻¹ | 73 200 M^-1s^-1 | 85 000 M^-1s^-1 | 280 M⁻¹ s⁻¹ |  |
| Glu(Ochx)-Bip-His(Bzl)-Asp | < 10 M⁻¹ s⁻¹ | < 10 M⁻¹ s⁻¹ | < 10 M⁻¹ s⁻¹ | 110 M⁻¹ s⁻¹ | 20 M⁻¹ s⁻¹ | 40 M⁻¹ s⁻¹ | < 10 M⁻¹ s⁻¹ |
| Ile-Glu-Thr-Asp | 1 010 M^-1s^-1 | 1 430 M^-1s^-1 | 2 850 M^-1s^-1 | 95 400 M^-1s^-1 | 3 400 M^-1s^-1 | 2 300 M^-1s^-1 | 21 200 M^-1s^-1 |
| Leu-Glu-His-Asp | 8 950 M^-1s^-1 | 97 500 M^-1s^-1 | 21 500 M^-1s^-1 | 186 000 M^-1s^-1 | 730 M⁻¹ s⁻¹ | 12 700 M^-1s^-1 | 12 600 M^-1s^-1 |
| Leu-Glu-Ser-Asp | 3 390 M^-1s^-1 | 20 000 M^-1s^-1 | 13500 M⁻¹ s⁻¹ | 19 200 M^-1s^-1 | 20 M⁻¹ s⁻¹ | 3550 M⁻¹ s⁻¹ | 950 M⁻¹ s⁻¹ |
| Phe(2Cl)-Glu-Pip-Asp | 9 760 M^-1s^-1 |  | 1 830 M^-1s^-1 | 11 430 M^-1s^-1 | 10 730 M^-1s^-1 | 2 300 M^-1s^-1 | 103 000 M^-1s^-1 |
| Phe-Glu-Ala-Asp | 870 M⁻¹ s⁻¹ | 57 100 M^-1s^-1 | 6 720 M^-1s^-1 | 3 890 M^-1s^-1 | 180 M⁻¹ s⁻¹ | 530 M⁻¹ s⁻¹ | 1 550 M^-1s^-1 |
| Phe-Leu-Thr-Asp | 450 M⁻¹ s⁻¹ | 50 000 M^-1s^-1 | 1 190 M^-1s^-1 | 3 050 M^-1s^-1 | 450 M⁻¹ s⁻¹ | 460 M⁻¹ s⁻¹ | 3 490 M^-1s^-1 |
| Pro-Bip-His(Bzl)-Asp | 590 M⁻¹ s⁻¹ | 13 800 M^-1s^-1 | 310 M⁻¹ s⁻¹ | 2 750 M^-1s^-1 | 40 M⁻¹ s⁻¹ | 6 990 M^-1s^-1 | 1 260 M^-1s^-1 |
| Pro-Met-His-Asp | 460 M⁻¹ s⁻¹ | 13 200 M^-1s^-1 | 130 M⁻¹ s⁻¹ | 3 570 M^-1s^-1 | 100 M⁻¹ s⁻¹ | 13 000 M^-1s^-1 | 3 160 M^-1s^-1 |
| Pro-Tyr-His-Asp | 330 M⁻¹ s⁻¹ | 10 900 M^-1s^-1 | 1 110 M^-1s^-1 | 4 490 M^-1s^-1 | 90 M⁻¹ s⁻¹ | 11 080 M^-1s^-1 | 2 110 M^-1s^-1 |
| Thr-Trp-His-Asp | 450 M⁻¹ s⁻¹ | 4 500 M^-1s^-1 | 600 M⁻¹ s⁻¹ | 1 100 M^-1s^-1 | 710 M⁻¹ s⁻¹ | 4 810 M^-1s^-1 | 26 990 M^-1s^-1 |
| Tle-Bpa-His(Bzl)-Asp | 4 390 M^-1s^-1 | 25 300 M^-1s^-1 | 2 650 M^-1s^-1 | 6 400 M^-1s^-1 | 100 M⁻¹ s⁻¹ | 4 210 M^-1s^-1 | 23 360 M^-1s^-1 |
| Tle-hGlu-Thr(Bzl)-Asp | 2 130 M^-1s^-1 | 12 400 M^-1s^-1 | 5 750 M^-1s^-1 | 125 800 M^-1s^-1 | 17 430 M^-1s^-1 | 7 820 M^-1s^-1 | 179 800 M^-1s^-1 |
| Tyr-Gln-2Aoc-Asp | 1 100 M^-1s^-1 |  | 2 860 M^-1s^-1 | 4 970 M^-1s^-1 | 190 M⁻¹ s⁻¹ | 310 M⁻¹ s⁻¹ | 2 580 M^-1s^-1 |
| Val-Tyr(2,6Cl2Bzl)-His-Asp | 100 M⁻¹ s⁻¹ | < 10 M⁻¹ s⁻¹ |  | 750 M⁻¹ s⁻¹ | 80 M⁻¹ s⁻¹ | 480 M⁻¹ s⁻¹ | 3 400 M^-1s^-1 |
